In patent publication US9346815B2, “5-chloro-2-difluoromethoxyphenyl pyrazolopyrimidine compounds, compositions and methods of use thereof” (Genentech, Inc., priority 2014, dated 2016):
pEC50, pKi: −log10 of the molar value. Like-named read-outs stand apart in the source and are kept apart here.

What was measured:
[1] = target: isolated recombinant JAK1 kinase domain (Homo sapiens (Human), UniProt P23458); assay: JAK1 enzyme assay (Caliper LabChip, peptide phosphorylation); type: biochemical; settings: isolated recombinant JAK1 kinase domain, 25 μM ATP
[2] = target: isolated recombinant JAK2 kinase domain (Homo sapiens (Human), UniProt O60674); assay: JAK2 enzyme assay (Caliper LabChip, peptide phosphorylation); type: biochemical; settings: 25 μM ATP
[3] = test system: JAK1-dependent STAT6 phosphorylation downstream of IL-13 stimulation in TF-1 human erythroleukemia cells; assay: JAK1 pathway assay in TF-1 cells (IL-13-pSTAT6, MSD); type: cell-based; settings: read-out: IL13-pSTAT6 EC50_TF-1
Outline: (§1)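 Compound preincubation lasted 1 hr for BEAS-2B cells in complete growth medium and 30 min for GM-CSF-starved TF-1 cells in serum-free medium. EC50 values were determined.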

[4] = test system: JAK1-dependent STAT6 phosphorylation downstream of IL-13 stimulation in BEAS-2B human bronchial epithelial cells; assay: JAK1 pathway assay in BEAS-2B cells (IL-13-pSTAT6, MSD); type: cell-based; settings: read-out: IL13-pSTAT6 EC50 (uM)_BEAS-2B
Outline: as §1

Chain of isolated recombinant JAK1 kinase domain (P23458 875-1153): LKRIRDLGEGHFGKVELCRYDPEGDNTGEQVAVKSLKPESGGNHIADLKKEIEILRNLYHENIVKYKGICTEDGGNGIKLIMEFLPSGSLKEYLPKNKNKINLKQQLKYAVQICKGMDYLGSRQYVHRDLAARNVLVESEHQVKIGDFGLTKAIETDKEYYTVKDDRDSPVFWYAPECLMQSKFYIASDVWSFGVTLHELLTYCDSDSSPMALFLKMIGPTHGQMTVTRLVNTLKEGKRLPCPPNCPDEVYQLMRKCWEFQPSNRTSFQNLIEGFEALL
Chain of isolated recombinant JAK2 kinase domain (O60674 849-1124): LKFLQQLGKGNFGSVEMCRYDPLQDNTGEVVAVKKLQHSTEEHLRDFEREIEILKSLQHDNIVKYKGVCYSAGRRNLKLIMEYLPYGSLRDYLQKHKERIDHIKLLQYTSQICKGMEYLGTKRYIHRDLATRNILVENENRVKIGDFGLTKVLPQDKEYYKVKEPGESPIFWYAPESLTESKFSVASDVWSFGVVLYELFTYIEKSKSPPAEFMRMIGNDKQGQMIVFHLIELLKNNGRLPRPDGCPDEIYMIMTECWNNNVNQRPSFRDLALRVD

Row | SMILES | pKi [1] | pKi [2] | pEC50 ([3]; Homo sapiens, TF-1, TF-1 cells) | pEC50 ([3]; TF-1 cells) | EC50 [4]
1 | CN1CC[C@H]2[C@H](CCN2C(=O)Cn2cc(NC(=O)c3cnn4cccnc34)c(-c3cc(Cl)ccc3OC(F)F)n2)C1 [Example 48, N-[1-[2-[(3aR,7aS)-5-methyl-3,3a,4,6,7,7a-hexahydro-2H-pyrrolo[3,2-c]pyridin-1-yl]-2-oxo-ethyl]-3-[5-chloro-2-(difluoromethoxy)phenyl]pyrazol-4-yl]pyrazolo[1,5-a]pyrimidine-3-carboxamide] | 9.03 | 8.73 | 7.86 | – | 0.0594 µM
2 | CN1CC[C@@H]2[C@@H](CCN2C(=O)Cn2cc(NC(=O)c3cnn4cccnc34)c(-c3cc(Cl)ccc3OC(F)F)n2)C1 [Example 45, N-[1-[2-[(3aS,7aR)-5-methyl-3,3a,4,6,7,7a-hexahydro-2H-pyrrolo[3,2-c]pyridin-1-yl]-2-oxo-ethyl]-3-[5-chloro-2-(difluoromethoxy)phenyl]pyrazol-4-yl]pyrazolo[1,5-a]pyrimidine-3-carboxamide] | 9.13 | 8.75 | – | 8.15 | 0.0245 µM
3 | N=C(N)CCn1cc(NC(=O)c2cnn3cccnc23)c(-c2cc(Cl)ccc2OC(F)F)n1 [Example 304, N-[1-(2-carbamimidoylethyl)-3-[5-chloro-2-(difluoromethoxy)phenyl]-1H-pyrazol-4-yl]pyrazolo[1,5-a]pyrimidine-3-carboxamide] | 9.11 | 9.41 | 8.23 | – | 0.0469 µM
4 | CN(CCc1ccc(Cl)cc1)C1CCN(C(=O)Cn2cc(NC(=O)c3cnn4cccnc34)c(-c3cc(Cl)ccc3OC(F)F)n2)CC1 [Example 94, N-[3-[5-chloro-2-(difluoromethoxy)phenyl]-1-[2-[4-[2-(4-chlorophenyl)ethyl-methyl-amino]-1-piperidyl]-2-oxo-ethyl]pyrazol-4-yl]pyrazolo[1,5-a]pyrimidine-3-carboxamide] | 8.92 | 8.68 | 7.37 | – | 0.0931 µM
5 | CNC(=O)CCCN1CCC(n2cc(NC(=O)c3c(N)nn4cccnc34)c(-c3cc(Cl)ccc3OC(F)F)n2)CC1 [Example 149, 2-amino-N-[3-[5-chloro-2-(difluoromethoxy)phenyl]-1-[1-[4-(methylamino)-4-oxo-butyl]-4-piperidyl]pyrazol-4-yl]pyrazolo[1,5-a]pyrimidine-3-carboxamide] | 9.09 | 9.70 | 8.08 | – | 0.0198 µM
6 | O=C(Nc1cn(CC(=O)N2CCOCC2)nc1-c1cc(Cl)ccc1OC(F)F)c1cnn2cccnc12 [Example 288, N-[3-[5-chloro-2-(difluoromethoxy)phenyl]-1-(2-morpholino-2-oxo-ethyl)pyrazol-4-yl]pyrazolo[1,5-a]pyrimidine-3-carboxamide] | 9.24 | 8.95 | 8.55 | – | 0.0363 µM
7 | O=C(Nc1cn(CC(=O)N2C[C@H]3CN(CC4CCC(F)(F)CC4)C[C@H]3C2)nc1-c1cc(Cl)ccc1OC(F)F)c1cnn2cccnc12 [Example 33, N-[1-[2-[(3aR,6aS)-2-[(4,4-difluoro-cyclohexyl)methyl]-1,3,3a,4,6,6a-hexahydropyrrolo[3,4-c]pyrrol-5-yl]-2-oxo-ethyl]-3-[5-chloro-2-(difluoromethoxy)phenyl]pyrazol-4-yl]pyrazolo[1,5-a]pyrimidine-3-carboxamide] | 9.18 | 9.31 | 8.21 | – | 0.0485 µM
8 | O=C(Nc1cn(CC(=O)N2CCC(N(CCC(F)(F)F)Cc3ccccc3)CC2)nc1-c1cc(Cl)ccc1OC(F)F)c1cnn2cccnc12 [Example 118, N-[1-[2-[4-[benzyl(3,3,3-trifluoropropyl)amino]-1-piperidyl]-2-oxo-ethyl]-3-[5-chloro-2-(difluoromethoxy)phenyl]pyrazol-4-yl]pyrazolo[1,5-a]pyrimidine-3-carboxamide] | 8.59 | 8.35 | 7.00 | – | 0.303 µM
9 | O=C(CNCCn1cc(NC(=O)c2cnn3cccnc23)c(-c2cc(Cl)ccc2OC(F)F)n1)OC1CCCC1 [Example 307, cyclopentyl 2-[2-[3-[5-chloro-2-(difluoromethoxy)phenyl]-4-(pyrazolo[1,5-a]pyrimidine-3-carbonylamino)pyrazol-1-yl]ethylamino]acetate] | 8.84 | 9.23 | 8.21 | – | 0.025 µM
10 | CN1CCN(C(=O)Cn2cc(NC(=O)c3cnn4cccnc34)c(-c3cc(Cl)ccc3OC(F)F)n2)C[C@H]1CO [Example 235, N-[3-[5-chloro-2-(difluoromethoxy)phenyl]-1-[2-[(3S)-3-(hydroxymethyl)-4-methyl-piperazin-1-yl]-2-oxo-ethyl]pyrazol-4-yl]pyrazolo[1,5-a]pyrimidine-3-carboxamide] | 9.24 | 8.97 | 7.67 | – | 0.114 µM
11 | CNC1CCN(C(=O)Cn2cc(NC(=O)c3cnn4cccnc34)c(-c3cc(Cl)ccc3OC(F)F)n2)CC1 [Example 83, N-[3-[5-chloro-2-(difluoromethoxy)phenyl]-1-[2-[4-(methylamino)-1-piperidyl]-2-oxo-ethyl]pyrazol-4-yl]pyrazolo[1,5-a]pyrimidine-3-carboxamide] | 8.97 | 8.80 | 7.37 | – | 0.143 µM
12 | O=C(Nc1cn(CC(=O)N2CCC(NC(c3ccccc3)C(F)(F)F)CC2)nc1-c1cc(Cl)ccc1OC(F)F)c1cnn2cccnc12 (centres unmarked) [Example 132, N-[3-[5-chloro-2-(difluoromethoxy)phenyl]-1-[2-oxo-2-[4-[(2,2,2-trifluoro-1-phenyl-ethyl)amino]-1-piperidyl]ethyl]pyrazol-4-yl]pyrazolo[1,5-a]pyrimidine-3-carboxamide] | 9.24 | 8.90 | 8.51 | – | 0.0973 µM

Now those with a higher pKi [1], led by results:

Row | pKi [1] | pKi [2] | pEC50 ([3]; Homo sapiens, TF-1, TF-1 cells) | pEC50 ([3]; TF-1 cells) | SMILES | EC50 [4]
13 | 9.27 | 9.77 | 7.89 | – | CC(=O)N1CCC(N2CCC(n3cc(NC(=O)c4c(N)nn5cccnc45)c(-c4cc(Cl)ccc4OC(F)F)n3)CC2)CC1 [Example 144, N-[1-[1-(1-acetyl-4-piperidyl)-4-piperidyl]-3-[5-chloro-2-(difluoromethoxy)phenyl]pyrazol-4-yl]-2-amino-pyrazolo[1,5-a]pyrimidine-3-carboxamide] | 0.0213 µM
14 | 9.40 | 9.14 | 7.81 | – | N#CCCNC1CCN(C(=O)Cn2cc(NC(=O)c3cnn4cccnc34)c(-c3cc(Cl)ccc3OC(F)F)n2)CC1 [Example 87, N-[3-[5-chloro-2-(difluoromethoxy)phenyl]-1-[2-[4-(2-cyanoethylamino)-1-piperidyl]-2-oxo-ethyl]pyrazol-4-yl]pyrazolo[1,5-a]pyrimidine-3-carboxamide] | 0.014 µM
15 | 9.41 | 9.40 | 8.85 | – | O=C(Nc1cn(CC2(O)CCCC2)nc1-c1cc(Cl)ccc1OC(F)F)c1cnn2cccnc12 [Example 292, N-[3-[5-chloro-2-(difluoromethoxy)phenyl]-1-[(1-hydroxy-cyclopentyl)methyl]pyrazol-4-yl]pyrazolo[1,5-a]pyrimidine-3-carboxamide] | 0.021 µM
16 | 9.41 | 8.89 | 8.30 | – | CC(C)CN1CCC2(CCN(C(=O)Cn3cc(NC(=O)c4cnn5cccnc45)c(-c4cc(Cl)ccc4OC(F)F)n3)CC2)C1 [Example 225, N-[3-[5-chloro-2-(difluoromethoxy)phenyl]-1-[2-(2-isobutyl-2,8-diazaspiro[4.5]decan-8-yl)-2-oxo-ethyl]pyrazol-4-yl]pyrazolo[1,5-a]pyrimidine-3-carboxamide] | 0.0423 µM
17 | 9.49 | 10.15 | 8.15 | – | Nc1nn2cccnc2c1C(=O)Nc1cn([C@H]2C[C@@H](N)C2)nc1-c1cc(Cl)ccc1OC(F)F [Example 297, 2-Amino-pyrazolo[1,5-a]pyrimidine-3-carboxylic acid [1-(3-amino-cyclobutyl)-3-(5-chloro-2-difluoromethoxy-phenyl)-1H-pyrazol-4-yl]-amide] | 0.0308 µM
18 | 9.54 | 9.42 | 8.52 | – | CN(C(=O)Cn1cc(NC(=O)c2cnn3cccnc23)c(-c2cc(Cl)ccc2OC(F)F)n1)C1(CO)CC1 [Example 293] | 0.0081 µM
19 | 9.55 | 9.74 | 8.40 | – | CCN(Cc1ccnc(Cl)c1)C(=O)Cn1cc(NC(=O)c2cnn3cccnc23)c(-c2cc(Cl)ccc2OC(F)F)n1 [Example 300, N-[3-[5-chloro-2-(difluoromethoxy)phenyl]-1-[2-[(2-chloro-4-pyridyl)methyl-ethyl-amino]-2-oxo-ethyl]pyrazol-4-yl]pyrazolo[1,5-a]pyrimidine-3-carboxamide] | 0.0142 µM
20 | 9.64 | 9.17 | 7.56 | – | CN1CC[C@@H]2[C@H](CCN2C(=O)Cn2cc(NC(=O)c3cnn4cccnc34)c(-c3cc(Cl)ccc3OC(F)F)n2)C1 [Example 61, N-[1-[2-[(3aR,7aR)-5-methyl-3,3a,4,6,7,7a-hexahydro-2H-pyrrolo[3,2-c]pyridin-1-yl]-2-oxo-ethyl]-3-[5-chloro-2-(difluoromethoxy)phenyl]pyrazol-4-yl]pyrazolo[1,5-a]pyrimidine-3-carboxamide] | 0.0324 µM
